Reference: US20250228239A1, “MOLECULES HAVING PESTICIDAL UTILITY, AND INTERMEDIATES, COMPOSITIONS, AND PROCESSES, RELATED THERETO” (priority 2024, published 2025)

Tests used:
[1] = system: Cabbage Looper (Trichoplusia ni, TRIPNI); assay: Bioassays on Cabbage Looper (CL), 128-well diet tray assay; type: in vivo; conditions: Trichoplusia ni; Table ABC: Biological Results; species CL; read-out: CL
Outline: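 One to five second-instar larvae per well on artificial diet surface-treated with 50 μg/cm^2 test molecule (applied in 90:10 acetone-water, dried). Held 5–7 days at 25° C, 14:10 light-dark; percent mortality recorded per well and averaged over eight wells.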

[2] = system: Beet Armyworm (Spodoptera exigua, LAPHEG); assay: Bioassays on Beet Armyworm (BAW), 128-well diet tray assay; type: in vivo; conditions: Spodoptera exigua; Table ABC: Biological Results; species BAW; read-out: BAW
Outline: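 Eight diet wells per compound were treated at 50 μg/cm^2 (acetone-water 90:10), dried, then infested with 1–5 second-instar larvae each. After five to seven days at 25 °C under 14:10 photoperiod, mortality was scored and averaged across wells.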

Row | SMILES | pest or weed control at 50 µg/cm2 [1] [%] | pest or weed control at 50 µg/cm2 [2] [%]
1 | O=C(Nc1c(F)cc(F)cc1F)c1cc(NC(=O)[C@H]2[C@H](c3cc(Cl)cc(Cl)c3)C2(Cl)Cl)ccc1Cl (single isomer, unassigned) [F1377] | 50 to 100 | 50 to 100
2 | O=C(Nc1c(F)cc(F)cc1F)c1cc(NC(=O)[C@@H]2[C@@H](c3cc(Cl)cc(Cl)c3)C2(Cl)Cl)ccc1Cl (single isomer, unassigned) [F1378] | 50 to 100 | 0 to 50
3 | Nc1cc(F)c(NC(=O)c2cc(NC(=O)[C@H]3[C@H](c4cc(Cl)cc(Cl)c4)C3(Cl)Cl)ccc2Cl)c(F)c1 [F1027, N-(4-Amino-2,6-difluorophenyl)-2-chloro-5-((1R,3R)-2,2-dichloro-3-(3,5-dichlorophenyl)cyclopropane-1-carboxamido)benzamide] | 50 to 100 | 50 to 100
4 | Nc1cc(F)c(NC(=O)c2cc(NC(=O)[C@H]3[C@H](c4ccc(Cl)c(Cl)c4)C3(Cl)Cl)ccc2Cl)c(F)c1 [F1028, N-(4-Amino-2,6-difluorophenyl)-2-chloro-5-((1R,3R)-2,2-dichloro-3-(3,4-dichlorophenyl)cyclopropane-1-carboxamido)benzamide] | 50 to 100 | 50 to 100
5 | Nc1cc(F)c(NC(=O)c2cc(NC(=O)[C@H]3[C@H](c4cc(Cl)c(Cl)c(Cl)c4)C3(Cl)Cl)ccc2Cl)c(F)c1 [F1029, N-(4-Amino-2,6-difluorophenyl)-2-chloro-5-((1R,3R)-2,2-dichloro-3-(3,4,5-trichlorophenyl)cyclopropane-1-carboxamido)benzamide] | 50 to 100 | 50 to 100
6 | Nc1cc(F)c(NC(=O)c2cc(NC(=O)[C@H]3[C@H](c4ccc(F)c(Cl)c4)C3(Cl)Cl)ccc2Cl)c(F)c1 [F1030, N-(4-Amino-2,6-difluorophenyl)-2-chloro-5-((1R,3R)-2,2-dichloro-3-(3-chloro-4-fluorophenyl)cyclopropane-1-carboxamido)benzamide] | 50 to 100 | 50 to 100
7 | CN(C(=O)c1cc(NC(=O)[C@H]2[C@H](c3ccc(Cl)c(Cl)c3)C2(Cl)Cl)ccc1Cl)c1ccc(F)c(N)c1F [F1056, N-(3-Amino-2,4-difluorophenyl)-2-chloro-5-((1R,3R)-2,2-dichloro-3-(3,4-dichlorophenyl)cyclopropane-1-carboxamido)-N-methylbenzamide] | 50 to 100 | 50 to 100
8 | O=C(Nc1ccc(F)c(NC(=O)C(Cl)(Cl)Cl)c1F)c1cc(NC(=O)[C@H]2[C@H](c3ccc(Cl)c(Cl)c3)C2(Cl)Cl)ccc1Cl [F1063, 2-Chloro-5-((1R,3R)-2,2-dichloro-3-(3,4-dichlorophenyl)cyclopropane-1-carboxamido)-N-(2,4-difluoro-3-(2,2,2-trichloroacetamido)phenyl)benzamide] | 50 to 100 | 50 to 100
9 | Cc1cc(C2C(C(=O)Nc3ccc(Cl)c(C(=O)Nc4ccc(F)c(N)c4F)c3)C2(Cl)Cl)cc(C(F)(F)F)c1F (stereo not drawn) [F1069, cis-N-(3-Amino-2,4-difluorophenyl)-2-chloro-5-((cis)-2,2-dichloro-3-(4-fluoro-3-methyl-5-(trifluoromethyl)phenyl)cyclopropane-1-carboxamido)benzamide] | 50 to 100 | 50 to 100
10 | O=C(Nc1cccc(F)c1[N+](=O)[O-])c1cc(NC(=O)[C@H]2[C@H](c3ccc(F)c(Cl)c3)C2(Cl)Cl)ccc1Cl [F1081, 2-Chloro-5-((1R,3R)-2,2-dichloro-3-(3-chloro-4-fluorophenyl)cyclopropane-1-carboxamido)-N-(3-fluoro-2-nitrophenyl)benzamide] | 50 to 100 | 50 to 100
11 | Cc1cc(F)c(NC(=O)c2cc(NC(=O)[C@H]3[C@H](c4ccc(F)c(Cl)c4)C3(Cl)Cl)ccc2Cl)cc1[N+](=O)[O-] [F1082, 2-Chloro-5-((1R,3R)-2,2-dichloro-3-(3-chloro-4-fluorophenyl)cyclopropane-1-carboxamido)-N-(2-fluoro-4-methyl-5-nitrophenyl)benzamide] | 50 to 100 | 50 to 100
12 | CC(=O)Nc1c(F)ccc(NC(=O)c2cc(NC(=O)[C@H]3[C@H](c4ccc(Cl)c(Cl)c4)C3(Cl)Cl)ccc2Cl)c1F [F1083, N-(3-acetamido-2,4-difluorophenyl)-2-chloro-5-((1R,3R)-2,2-dichloro-3-(3,4-dichlorophenyl)cyclopropane-1-carboxamido)benzamide] | 50 to 100 | 50 to 100
13 | Nc1c(F)ccc(NC(=O)c2cc(NC(=O)C3C(c4cc(F)cc(Br)c4F)C3(Cl)Cl)ccc2Cl)c1F (stereo not drawn) [F1097, cis-(3-Amino-2,4-difluorophenyl)-5-(3-(3-bromo-2,5-difluorophenyl)-2,2-dichlorocyclopropane-1-carboxamido)-2-chlorobenzamide] | 50 to 100 | 50 to 100
14 | O=C(Nc1ccc(F)cc1NC(=O)C(Cl)(Cl)Cl)c1cc(NC(=O)C2C(c3ccc(Cl)c(Cl)c3)C2(Cl)Cl)ccc1Cl (stereo not drawn) [F1126] | 50 to 100 | 50 to 100
15 | Nc1c(F)cccc1NC(=O)c1cc(NC(=O)[C@H]2[C@H](c3ccc(F)c(Cl)c3)C2(Cl)Cl)ccc1Cl [F1133, N-(2-Amino-3-fluorophenyl)-2-chloro-5-((1R,3R)-2,2-dichloro-3-(3-chloro-4-fluorophenyl)cyclopropane-1-carboxamido)benzamide] | 50 to 100 | 50 to 100
16 | Nc1cc(F)c(F)cc1NC(=O)c1cc(NC(=O)[C@H]2[C@H](c3ccc(F)c(Cl)c3)C2(Cl)Cl)ccc1Cl [F1134, N-(2-Amino-4,5-difluorophenyl)-2-chloro-5-((1R,3R)-2,2-dichloro-3-(3-chloro-4-fluorophenyl)cyclopropane-1-carboxamido)benzamide] | 50 to 100 | 50 to 100
17 | Cc1cc(F)c(NC(=O)c2cc(NC(=O)[C@H]3[C@H](c4ccc(F)c(Cl)c4)C3(Cl)Cl)ccc2Cl)cc1N [F1135, N-(5-Amino-2-fluoro-4-methylphenyl)-2-chloro-5-((1R,3R)-2,2-dichloro-3-(3-chloro-4-fluorophenyl)cyclopropane-1-carboxamido)benzamide] | 50 to 100 | 50 to 100
18 | CC(=O)OCCNc1ccc(NC(=O)c2cc(NC(=O)[C@H]3[C@H](c4ccc(F)c(C(F)(F)F)c4)C3(Cl)Cl)ccc2Cl)c(C)c1 [F1144, 2-((4-(2-Chloro-5-((1R,3R)-2,2-dichloro-3-(4-fluoro-3-(trifluoromethyl)phenyl)cyclopropane-1-carboxamido)benzamido)-3-methylphenyl)amino)ethyl acetate] | 50 to 100 | 50 to 100
19 | Cc1cc(NCCO)ccc1NC(=O)c1cc(NC(=O)[C@H]2[C@H](c3ccc(F)c(C(F)(F)F)c3)C2(Cl)Cl)ccc1Cl [F1145, 2-Chloro-5-((1R,3R)-2,2-dichloro-3-(4-fluoro-3-(trifluoromethyl)phenyl)cyclopropane-1-carboxamido)-N-(4-((2-hydroxyethyl)amino)-2-methylphenyl)benzamide] | 50 to 100 | 50 to 100
20 | O=C(Nc1c(F)ccc(NC(=O)c2cc(NC(=O)[C@H]3[C@H](c4ccc(F)c(C(F)(F)F)c4)C3(Cl)Cl)ccc2Cl)c1F)c1ccccc1 [F1179, N-(3-Benzamido-2,4-difluorophenyl)-2-chloro-5-((1R,3R)-2,2-dichloro-3-(4-fluoro-3-(trifluoromethyl)phenyl)cyclopropane-1-carboxamido)benzamide] | 50 to 100 | 50 to 100
21 | O=C(Nc1c(F)ccc(NC(=O)c2cc(NC(=O)[C@H]3[C@H](c4ccc(F)c(C(F)(F)F)c4)C3(Cl)Cl)ccc2Cl)c1F)c1ccc(F)cc1 [F1204, 2-chloro-5-((1R,3R)-2,2-dichloro-3-(4-fluoro-3-(trifluoromethyl)phenyl)cyclopropane-1-carboxamido)-N-(2,4-difluoro-3-(4-fluorobenzamido)phenyl)benzamide] | 50 to 100 | 50 to 100
22 | COc1ccc(C(=O)Nc2c(F)ccc(NC(=O)c3cc(NC(=O)[C@H]4[C@H](c5ccc(F)c(C(F)(F)F)c5)C4(Cl)Cl)ccc3Cl)c2F)cc1 [F1205, 2-Chloro-5-((1R,3R)-2,2-dichloro-3-(4-fluoro-3-(trifluoromethyl)phenyl)cyclopropane-1-carboxamido)-N-(2,4-difluoro-3-(4-methoxybenzamido)phenyl)benzamide] | 50 to 100 | 50 to 100
23 | O=C(Nc1c(F)ccc(NC(=O)c2cc(NC(=O)[C@H]3[C@H](c4ccc(F)c(C(F)(F)F)c4)C3(Cl)Cl)ccc2Cl)c1F)c1cccnc1 [F1206, N-(3-(2-Chloro-5-((1R,3R)-2,2-dichloro-3-(4-fluoro-3-(trifluoromethyl)phenyl)cyclopropane-1-carboxamido)benzamido)-2,6-difluorophenyl)nicotinamide] | 50 to 100 | 50 to 100
24 | CC(=O)Nc1c(F)ccc(NC(=O)c2cc(NC(=O)[C@H]3[C@H](c4ccc(F)c(C(F)(F)F)c4)C3(Cl)Cl)ccc2Cl)c1F [F1231, N-(3-Acetamido-2,4-difluorophenyl)-2-chloro-5-((1R,3R)-2,2-dichloro-3-(4-fluoro-3-(trifluoromethyl)phenyl)cyclopropane-1-carboxamido)benzamide] | 50 to 100 | 50 to 100
